{"source": "paper PMC7898037", "about": "“Improving mitochondria and ER stability helps eliminate upper motor neuron degeneration that occurs due to mSOD1 toxicity and TDP‐43 pathology” (Clinical and Translational Medicine, 2021)", "key": {"cortical neurons": {"system": "cortical neurons", "set-up": "method as in earlier work", "details": "ref 53 (compound 2), ref 54 (NU‐9); cited from earlier work"}, "Weight of the mice": {"experiment": "Weight of the mice", "format": "in vivo", "set-up": "Mean Diff. of weight, vehicle vs. NU-9: unit not given here", "details": "for Mean weight (Mean 2): WT-UeGFP mice, in g (unit assumed); for Weight, Average: WT-UeGFP", "procedure": "hSOD1^G93A‐UeGFP, prpTDP‐43^A315T‐UeGFP and WT‐UeGFP mice were weighed and the required NU‐9 dose per weight was calculated (20 or 100 mg/kg), which was administered once daily by oral gavage, starting at postnatal day (P)60 and continuing until P120. Animals from the untreated group received the vehicle (NMP and olive oil) only. For oral administration purposes, 20 ga × 38 mm plastic feeding tubes were used (Instech Laboratories, Inc). The gavage tip was inserted into the mouth directly over the tongue and into the pharynx. While observing the swallowing reflex, the tip was safely and smoothly slid into the esophagus. Once the administration was completed, the gavage tip was pulled straight out.\nBehavior data were collected from hSOD1^G93A‐UeGFP and WT‐UeGFP mice (starting at P60 and every 7 days until P116) and from prpTDP‐43^A315T‐UeGFP mice (at P60, P90, and P120) with the following number of mice for each group: WT‐UeGFP vehicle (n = 10), hSOD1^G93A‐UeGFP vehicle (n = 6), WT‐UeGFP 20 mg/kg/day NU‐9 (n = 5), hSOD1^G93A‐UeGFP 20 mg/kg/day NU‐9 (n = 7), WT‐UeGFP 100 mg/kg/day NU‐9 (n = 11), hSOD1^G93A‐UeGFP 100 mg/kg/day NU‐9 (n = 9), prpTDP‐43^A315T‐UeGFP untreated (n ≥ 3), and prpTDP‐43^A315T‐UeGFP 100 mg/kg/day NU‐9 (n = 4) (Table S3)."}}}
{"smiles": "C[C@H](Oc1cc(C(F)(F)F)cc(C(F)(F)F)c1)C1CC(=O)CC(=O)C1", "note": "[NU‐9]", "values": [{"measurement": "penetration into neurons", "setting": "cortical neurons", "value": "penetrated cortical neurons"}, {"measurement": "Mean Diff. of weight, vehicle vs. NU-9", "setting": "Weight of the mice; WT-UeGFP (vehicle) vs. WT-UeGFP (NU-9 20 mg/kg/day), P60, Tukey's multiple comparisons test", "value": -0.6}, {"measurement": "Mean Diff. of weight, vehicle vs. NU-9", "setting": "Weight of the mice; WT-UeGFP (vehicle) vs. WT-UeGFP (NU-9 20 mg/kg/day), P67, Tukey's multiple comparisons test", "value": -1.3}, {"measurement": "Mean Diff. of weight, vehicle vs. NU-9", "setting": "Weight of the mice; WT-UeGFP (vehicle) vs. WT-UeGFP (NU-9 20 mg/kg/day), P74, Tukey's multiple comparisons test", "value": -0.9}, {"measurement": "Mean Diff. of weight, vehicle vs. NU-9", "setting": "Weight of the mice; WT-UeGFP (vehicle) vs. WT-UeGFP (NU-9 20 mg/kg/day), P81, Tukey's multiple comparisons test", "value": -0.5}, {"measurement": "Mean Diff. of weight, vehicle vs. NU-9", "setting": "Weight of the mice; WT-UeGFP (vehicle) vs. WT-UeGFP (NU-9 20 mg/kg/day), P88, Tukey's multiple comparisons test", "value": -0.1}, {"measurement": "Mean Diff. of weight, vehicle vs. NU-9", "setting": "Weight of the mice; WT-UeGFP (vehicle) vs. WT-UeGFP (NU-9 20 mg/kg/day), P95, Tukey's multiple comparisons test", "value": 0}, {"measurement": "Mean Diff. of weight, vehicle vs. NU-9", "setting": "Weight of the mice; WT-UeGFP (vehicle) vs. WT-UeGFP (NU-9 20 mg/kg/day), P102, Tukey's multiple comparisons test", "value": -0.2}, {"measurement": "Mean Diff. of weight, vehicle vs. NU-9", "setting": "Weight of the mice; WT-UeGFP (vehicle) vs. WT-UeGFP (NU-9 20 mg/kg/day), P109, Tukey's multiple comparisons test", "value": -1}, {"measurement": "Mean Diff. of weight, vehicle vs. NU-9", "setting": "Weight of the mice; WT-UeGFP (vehicle) vs. WT-UeGFP (NU-9 20 mg/kg/day), P116, Tukey's multiple comparisons test", "value": -1.267}, {"measurement": "Mean Diff. of weight, vehicle vs. NU-9", "setting": "Weight of the mice; WT-UeGFP (vehicle) vs. WT-UeGFP (NU-9 100 mg/kg/day), P60, Tukey's multiple comparisons test", "value": -0.01818}, {"measurement": "Mean Diff. of weight, vehicle vs. NU-9", "setting": "Weight of the mice; WT-UeGFP (vehicle) vs. WT-UeGFP (NU-9 100 mg/kg/day), P67, Tukey's multiple comparisons test", "value": -0.7545}, {"measurement": "Mean Diff. of weight, vehicle vs. NU-9", "setting": "Weight of the mice; WT-UeGFP (vehicle) vs. WT-UeGFP (NU-9 100 mg/kg/day), P74, Tukey's multiple comparisons test", "value": -0.2818}, {"measurement": "Mean Diff. of weight, vehicle vs. NU-9", "setting": "Weight of the mice; WT-UeGFP (vehicle) vs. WT-UeGFP (NU-9 100 mg/kg/day), P81, Tukey's multiple comparisons test", "value": -0.9364}, {"measurement": "Mean Diff. of weight, vehicle vs. NU-9", "setting": "Weight of the mice; WT-UeGFP (vehicle) vs. WT-UeGFP (NU-9 100 mg/kg/day), P88, Tukey's multiple comparisons test", "value": -0.2091}, {"measurement": "Mean Diff. of weight, vehicle vs. NU-9", "setting": "Weight of the mice; WT-UeGFP (vehicle) vs. WT-UeGFP (NU-9 100 mg/kg/day), P95, Tukey's multiple comparisons test", "value": -0.2}, {"measurement": "Mean Diff. of weight, vehicle vs. NU-9", "setting": "Weight of the mice; WT-UeGFP (vehicle) vs. WT-UeGFP (NU-9 100 mg/kg/day), P102, Tukey's multiple comparisons test", "value": -0.5636}, {"measurement": "Mean Diff. of weight, vehicle vs. NU-9", "setting": "Weight of the mice; WT-UeGFP (vehicle) vs. WT-UeGFP (NU-9 100 mg/kg/day), P109, Tukey's multiple comparisons test", "value": -0.2545}, {"measurement": "Mean Diff. of weight, vehicle vs. NU-9", "setting": "Weight of the mice; WT-UeGFP (vehicle) vs. WT-UeGFP (NU-9 100 mg/kg/day), P116, Tukey's multiple comparisons test", "value": -0.7576}, {"measurement": "Mean weight (Mean 2)", "setting": "Weight of the mice; NU-9 20 mg/kg/day, P60", "value": 18.4}, {"measurement": "Mean weight (Mean 2)", "setting": "Weight of the mice; NU-9 20 mg/kg/day, P67", "value": 19}, {"measurement": "Mean weight (Mean 2)", "setting": "Weight of the mice; NU-9 20 mg/kg/day, P74", "value": 18.8}, {"measurement": "Mean weight (Mean 2)", "setting": "Weight of the mice; NU-9 20 mg/kg/day, P81", "value": 18.2}, {"measurement": "Mean weight (Mean 2)", "setting": "Weight of the mice; NU-9 20 mg/kg/day, P88", "value": 18.8}, {"measurement": "Mean weight (Mean 2)", "setting": "Weight of the mice; NU-9 20 mg/kg/day, P95", "value": 18.8}, {"measurement": "Mean weight (Mean 2)", "setting": "Weight of the mice; NU-9 100 mg/kg/day, P60", "value": 17.82}, {"measurement": "Mean weight (Mean 2)", "setting": "Weight of the mice; NU-9 100 mg/kg/day, P67", "value": 18.45}, {"measurement": "Mean weight (Mean 2)", "setting": "Weight of the mice; NU-9 100 mg/kg/day, P74", "value": 18.18}, {"measurement": "Mean weight (Mean 2)", "setting": "Weight of the mice; NU-9 100 mg/kg/day, P81", "value": 18.64}, {"measurement": "Mean weight (Mean 2)", "setting": "Weight of the mice; NU-9 100 mg/kg/day, P88", "value": 18.91}, {"measurement": "Mean weight (Mean 2)", "setting": "Weight of the mice; NU-9 100 mg/kg/day, P95", "value": 19}, {"measurement": "Weight, Average", "setting": "Weight of the mice; NU-9 20 mg/kg/day po, P60", "value": 18.4, "unit": "g"}, {"measurement": "Weight, Average", "setting": "Weight of the mice; NU-9 20 mg/kg/day po, P67", "value": 19, "unit": "g"}, {"measurement": "Weight, Average", "setting": "Weight of the mice; NU-9 20 mg/kg/day po, P74", "value": 18.8, "unit": "g"}, {"measurement": "Weight, Average", "setting": "Weight of the mice; NU-9 20 mg/kg/day po, P81", "value": 18.2, "unit": "g"}, {"measurement": "Weight, Average", "setting": "Weight of the mice; NU-9 20 mg/kg/day po, P88", "value": 18.8, "unit": "g"}, {"measurement": "Weight, Average", "setting": "Weight of the mice; NU-9 20 mg/kg/day po, P95", "value": 18.8, "unit": "g"}, {"measurement": "Weight, Average", "setting": "Weight of the mice; NU-9 20 mg/kg/day po, P102", "value": 19, "unit": "g"}, {"measurement": "Weight, Average", "setting": "Weight of the mice; NU-9 20 mg/kg/day po, P109", "value": 20.2, "unit": "g"}, {"measurement": "Weight, Average", "setting": "Weight of the mice; NU-9 20 mg/kg/day po, P116", "value": 20.6, "unit": "g"}, {"measurement": "Weight, Average", "setting": "Weight of the mice; NU-9 100 mg/kg/day po, P60", "value": 17.8182, "unit": "g"}, {"measurement": "Weight, Average", "setting": "Weight of the mice; NU-9 100 mg/kg/day po, P67", "value": 18.6, "unit": "g"}, {"measurement": "Weight, Average", "setting": "Weight of the mice; NU-9 100 mg/kg/day po, P74", "value": 18.1, "unit": "g"}, {"measurement": "Weight, Average", "setting": "Weight of the mice; NU-9 100 mg/kg/day po, P81", "value": 18.7, "unit": "g"}, {"measurement": "Weight, Average", "setting": "Weight of the mice; NU-9 100 mg/kg/day po, P88", "value": 18.9, "unit": "g"}, {"measurement": "Weight, Average", "setting": "Weight of the mice; NU-9 100 mg/kg/day po, P95", "value": 19, "unit": "g"}, {"measurement": "Weight, Average", "setting": "Weight of the mice; NU-9 100 mg/kg/day po, P102", "value": 19.5, "unit": "g"}, {"measurement": "Weight, Average", "setting": "Weight of the mice; NU-9 100 mg/kg/day po, P109", "value": 19.6, "unit": "g"}, {"measurement": "Weight, Average", "setting": "Weight of the mice; NU-9 100 mg/kg/day po, P116", "value": 20.3, "unit": "g"}]}
